Like-named read-outs stand apart in the source and are kept apart here.
Experiments:
MCF-7 breast cancer cell = assay: MTT cell growth inhibition assay, MCF-7; format: cell-based, human; details: for IC50: MTT, 48 h incubation, MCF-7
Description: (§1) All human cell lines were used in this study. MGC-803 late-stage differentiation gastric cancer cell, A549 lung cancer cell, HepG2 hepatoma cell, AGS gastric cancer cell, BEL-7402 liver cancer cell, HCT-116 colorectal cancer cell, HeLa cervical cancer cell, SGC-7901 early differentiation gastric cancer cell, L-02 normal liver cell, MCF-7 breast cancer cell, and MCF-10A normal breast cell were initially purchased from American Type Culture Collection (ATCC, Manassas, VA, USA). RPMI-1640 media, Dulbecco’s modified Eagle’s medium (DMEM), and foetal bovine serum (FBS) were provided from Gibco Company (Grand Island, NY, USA). The cells were maintained in DMEM or RPMI-1640, supplemented with 10% FBS, 100 IU/mL penicillin and […] (Grand Island, NY, USA), and at 37 °C in a humidified atmosphere containing 5% CO2.
(§2) Cells were plated in 96-well plates at a density of 30–40% to ensure exponential growth throughout the experimental period, and then allowed to adhere for 1 day[21]. Next, the cells were treated with four serial concentrations (1, 10, 50, and 100 µM) of each compound. Taxol, CA-4, and CA-4P (phosphorylated form of CA-4) were used as positive controls. After 48 h incubation, MTT solution was added to each well at a final concentration of 2 mg/mL, and incubated for an additional 4 h. Next, the MTT solution was removed and 150 µL of dimethyl sulphoxide (DMSO)/well was added (Sigma-Aldrich, St Louis, MO, USA). The plates were shaken vigorously at RT to ensure complete solubilisation, and absorption at 492 nm was determined.
(§3) According to standard protocol, preliminary in vitro anti-proliferative activities of the synthesised compounds were evaluated by MTT assay, using nine human cancer cell lines (MGC-803, A549, HepG2, AGS, BEL-7402, HCT116, HeLa, SGC-7901, and MCF-7) and two normal human cell lines (L-02 and MCF-10A), and compared with those of CA-4, CA-4P, and taxol.

L-02 normal liver cell = assay: MTT cell growth inhibition assay, L-02 (normal); format: cell-based, human; details: 48 h incubation, L-02 normal cells
Description: as §1, §2, §3

A549 lung cancer cell = assay: MTT cell growth inhibition assay, A549; format: cell-based, human; details: for IC50: MTT, 48 h incubation, A549
Description: as §1, §2, §3

BEL-7402 cells = assay: MTT cell growth inhibition assay, BEL-7402; format: cell-based, human; details: for IC50: MTT, 48 h incubation, Bel-7402; for SI IC50 (L-02/BEL-7402): selectivity index, IC50 (L-02)/IC50 (BEL-7402)
Description: as §1, §2, §3

MGC-803 cells = assay: MTT cell growth inhibition assay, MGC-803; format: cell-based, human; details: for IC50: MTT, 48 h incubation, MGC-803; for SI IC50 (L-02/MGC-803): selectivity index, IC50 (L-02)/IC50 (MGC-803)
Description: as §1, §2, §3

[1] = test system: MCF-10A normal breast cell; assay: MTT cell growth inhibition assay, MCF-10A (normal); format: cell-based, human; details: 48 h incubation, MCF-10A normal cells
Description: as §1, §2, §3

HCT116 cells = assay: MTT cell growth inhibition assay, HCT116; format: cell-based, human; details: for IC50: MTT, 48 h incubation, HCT116
Description: as §1, §2, §3

[2] = test system: SGC-7901 early differentiation gastric cancer cell; assay: MTT cell growth inhibition assay, SGC-7901; format: cell-based, human; details: 48 h incubation
Description: as §1, §2, §3

HepG2 hepatoma cell = assay: MTT cell growth inhibition assay, HepG-2; format: cell-based, human; details: MTT, 48 h incubation, HepG-2
Description: as §1, §2, §3

AGS cells = assay: MTT cell growth inhibition assay, AGS; format: cell-based, human; details: for IC50: MTT, 48 h incubation, AGS; for SI IC50 (L-02/AGS): selectivity index, IC50 (L-02)/IC50 (AGS)
Description: as §1, §2, §3

[3] = test system: HeLa cervical cancer cell; assay: MTT cell growth inhibition assay, HeLa; format: cell-based, human; details: 48 h incubation
Description: as §1, §2, §3

[4] = selectivity index, IC50 (MCF-10A)/IC50 (MCF-7)
[5] = selectivity index, IC50 (L-02)/IC50 (HCT116)

SMILES	IC50 (MCF-7 breast cancer cell; Homo sapiens, MCF7) [µM]	IC50 (L-02 normal liver cell; Homo sapiens) [µM]	IC50 (A549 lung cancer cell; Homo sapiens) [µM]	IC50 (BEL-7402 cells; Homo sapiens) [µM]	IC50 (MGC-803 cells; Homo sapiens, MGC-803, 48 h) [µM]	IC50 ([1]; Homo sapiens) [µM]	IC50 (HCT116 cells; Homo sapiens, HCT-116) [µM]	IC50 ([2]; Homo sapiens) [µM]	IC50 (HepG2 hepatoma cell; Homo sapiens, HepG2) [µM]	IC50 (AGS cells; Homo sapiens) [µM]	IC50 ([3]; Homo sapiens) [µM]	SI IC50 (MCF-10A/MCF-7) (MCF-7 breast cancer cell; [4])	IC50 (MGC-803 cells) [µM]	SI IC50 (L-02/MGC-803) (MGC-803 cells)	SI IC50 (L-02/HCT116) (HCT116 cells; [5])	SI IC50 (L-02/BEL-7402) (BEL-7402 cells)	melting point [°C]	SI IC50 (L-02/AGS) (AGS cells)	also measured
COc1ccc(/C=C\c2cc(OC)c(OC)c(OC)c2)cc1O [CA-4, (Z)-2-methoxy-5–(3,4,5-trimethoxystyryl) phenol, reference compound]	0.22 ± 0.09	1.1 ± 0.03	> 100	2.02 ± 0.03	0.06 ± 0.02	3.23 ± 1.21	0.16	0.3	> 100	3.42 ± 0.03	> 100	–	–	–	–	–	–	–	SI IC50 (MCF-10A/MCF-7) (MCF-7 breast cancer cell): >14.6; SI IC50 (L-02/HCT116) (HCT116 cells): >6.8
COc1ccc(/C=C\c2cc(OC)c(OC)c(OC)c2)cc1OP(=O)(O)O [CA-4P, reference compound]	–	–	–	–	–	–	–	–	–	–	–	>30.3	0.03 ± 0.02	>89.0	>4.5	–	–	–	IC50 (MCF-7 breast cancer cell): 0.48 ± 0.25 µM; IC50 (L-02 normal liver cell): 2.67 ± 0.61 µM; IC50 (A549 lung cancer cell): > 100 µM; IC50 (BEL-7402 cells): 5.45 ± 2.04 µM; IC50 [1]: 14.6 ± 1.36 µM; IC50 (HCT116 cells): 0.59 ± 0.22 µM; IC50 [2]: 0.12 ± 0.03 µM; IC50 (HepG2 hepatoma cell): > 100 µM; IC50 (AGS cells): 4.73 ± 0.22 µM; IC50 [3]: > 100 µM
COc1ccc(/C=C(\C#N)c2cc(OC)c(OC)c(OC)c2)cc1 [Compound 6d, (Z)-3-(4-Methoxyphenyl)-2-(3,4,5-trimethoxyphenyl)acrylonitrile]	16.7 ± 4.77	4.15 ± 4.16	> 100	0.75 ± 0.21	6.18 ± 0.36	3.07 ± 0.18	1.51 ± 0.05	> 100	> 100	0.05 ± 0.003	> 100	–	–	–	>2.7	>5.5	156 to 158	–	–
COc1cc(/C(C#N)=C/c2ccc(C(C)C)cc2)cc(OC)c1OC [Compound 6f, (Z)-3-(4-Isopropylphenyl)-2-(3,4,5-trimethoxyphenyl)acrylonitrile]	4.37 ± 2.8	> 100	36.62 ± 0.134	0.72 ± 0.01	7.21 ± 3.65	5.79 ± 0.48	0.17 ± 0.1	> 100	> 100	1.33 ± 0.15	> 100	>1.3	–	>13.8	>588.2	>138.8	156 to 158	>75.1	SI IC50 (L-02/A549) (A549 lung cancer cell; selectivity index, IC50 (L-02)/IC50 (A549)): >2.7
CCc1ccc(/C=C(\C#N)c2cc(OC)c(OC)c(OC)c2)cc1 [Compound 6g, (Z)-3-(4-Ethylphenyl)-2-(3,4,5-trimethoxyphenyl)acrylonitrile]	> 100	> 100	> 100	0.65 ± 0.05	0.01 to 7.21	1.19 ± 0.08	0.34 ± 0.01	> 100	> 100	4.38 ± 2.04	> 100	–	< 0.01	–	>294.1	>153.8	76 to 78	>22.8	–
COc1cc(/C(C#N)=C/c2cccs2)cc(OC)c1OC [Compound 7a, (Z)-3-(Thiophen-2-yl)-2-(3,4,5-trimethoxyphenyl)acrylonitrile]	15 ± 2	21.2 ± 10.8	> 100	1.82 ± 1.2	0.67 ± 0.22	55.8 ± 10.4	16.6 ± 10.3	> 100	> 100	8.01 ± 1.65	> 100	>3.7	–	–	>1.2	>11.6	102 to 104	>2.6	–
